{"source": "patent US20210322422A1", "about": "“USE OF AKT INHIBITORS IN OPHTHALMOLOGY” (Hoffmann-La Roche Inc., priority 2018, published 2021)", "assay_type_in_all_cases": "in vivo, mouse", "key": {"Cryba1 cKO mice [1]": {"test_system": "Cryba1 cKO mice", "assay": "flow cytometry estimation of percentage neutrophils in retina after intravitreal injection", "details": "male, 12 months old, intravitreal 500 uM, once weekly for three weeks, versus vehicle or untreated", "experimental": "Mouse retinas were dissected from enucleated eyes and digested with 0.05% collagenase D at 37° C. for 30 min, teased with blunt end forceps and pipetted to release cells, passed through a 70 μm cell strainer, centrifuged at 1,300 g, 4° C. for 20 minutes^10. The entire pellet was used for staining with the FITC-tagged cell surface markers CD45, V450-tagged Ly6G and Alexa fluor 700-tagged CD11b (BD Pharmigen™, USA) at a concentration of 1 μg/ml in PBS containing 1% BSA for 1 h. Cells were washed and analyzed on a flow cytometer (BD Aria III, FACS DIVA software, BD Biosciences, USA and FlowJo software-version 7.6.5), SSC-A/CD45+(FITC) cells were manually gated and among this population of cells; % Ly6G+ and % CD11b+Ly6G+ cells were quantified.\nCryba1^fl/fl and Cryba1 cKO mice (Male, 12 months old; n=4) were anaesthetized by intraperitoneal injection of 0.15 ml of ketamine (2.5 mg/ml)+ xylazine (0.5 mg/ml) mixture. Topical anesthesia (proparacaine hydrochloride) was applied to the eye and pupils dilated with a drop of topical 2.5% phenylephrine hydrochloride ophthalmic solution. The eye was proptosed by slight depression of the lower lid with blunt curved forceps and washed with sterile saline. […] All instruments were sterilized with a steam autoclave. Bacitracin Ophthalmic ointment was applied postoperatively^6. […]"}, "Cryba1 cKO mice [2]": {"test_system": "Cryba1 cKO mice", "assay": "ELISA of CXCL1 and IFNλ in RPE-choroid after intravitreal injection", "details": "versus age-matched vehicle and untreated", "experimental": "The RPE choroid complexes harvested from freshly enucleated mouse eyes were kept on ice and then homogenized in 300 μL of complete extraction buffer (Abcam, USA) per 5 mg of tissue. The homogenized tissue was allowed to stay in constant agitation for 2 h at 4° C., centrifuged at 13,000 rpm at 4° C. for 20 min. The supernatants were aliquoted and stored at −80° C. and were subsequently used to perform ELISA to evaluate the levels of IFNλ, and CXCL1, as previously described^13.\n(§1) Cryba1^fl/fl and Cryba1 cKO mice (Male, 12 months old; n=4) were anaesthetized by intraperitoneal injection of 0.15 ml of ketamine (2.5 mg/ml)+ xylazine (0.5 mg/ml) mixture. Topical anesthesia (proparacaine hydrochloride) was applied to the eye and pupils dilated with a drop of topical 2.5% phenylephrine hydrochloride ophthalmic solution. The eye was proptosed by slight depression of the lower lid with blunt curved forceps and washed with sterile saline. […] All instruments were sterilized with a steam autoclave. Bacitracin Ophthalmic ointment was applied postoperatively^6. Animals were euthanized with CO2 gas four weeks after the first injection and the retinas were harvested."}, "Cryba1 cKO mice [3]": {"test_system": "Cryba1 cKO mice", "assay": "histological sections (H&E) of retina after intravitreal injection", "details": "1 year old, versus vehicle", "experimental": "as §1\nFor hematoxylin and eosin (H&E) staining, eyes from NOD-SCID mice (n=10) were enucleated and fixed initially in 2.5% glutaraldehyde for 72 h, followed by 10% buffered formalin. The eyes were embedded in methyl-methacrylate, sectioned and stained as previously described″."}, "AKT2 (p-AKT2 S474)": {"test_system": "AKT2 (p-AKT2 S474)", "assay": "immunoblot of AKT2 phosphorylation in retinas after intravitreal injection", "details": "1-year-old Cryba1 cKO mice", "experimental": "SDS-PAGE and western blot analyses were performed as previously described^12. The primary antibodies were used at a dilution of 1:1000 whereas, all secondary antibodies were used at a dilution of 1:3000.\nas §1"}}, "note": "Entries after “also recorded” stand apart in the source; their conditions may differ.", "data": [{"smiles": "NC1(Cc2ccc(Cl)cc2)CCN(c2ncnc3[nH]ccc23)CC1", "note": "[CCT128930]", "values": [{"measurement": "infiltrating neutrophils (% Ly6G+ and % CD11b+Ly6G+ cells) in retina", "setting": "Cryba1 cKO mice [1]", "value": "decrease in infiltrating neutrophils; also recorded: significantly fewer neutrophils in the retinas"}, {"measurement": "CXCL1 levels in RPE-choroid", "setting": "Cryba1 cKO mice [2]", "value": "reduced levels"}, {"measurement": "IFNλ levels in RPE-choroid", "setting": "Cryba1 cKO mice [2]", "value": "reduced levels"}, {"measurement": "retinal structure / early RPE abnormalities (H&E)", "setting": "Cryba1 cKO mice [3]", "value": "exhibited normal structure; also recorded: reverses these early RPE abnormalities"}, {"measurement": "levels of total AKT in retina", "setting": "AKT2 (p-AKT2 S474); immunoblot", "value": "levels of total AKT did not change"}, {"measurement": "levels of pAKT2 (p-AKT2 S474) in retina", "setting": "AKT2 (p-AKT2 S474); immunoblot densitometry, versus vehicle", "value": "significantly decreased the levels of pAKT2; also recorded: reduced"}]}]}
